Test system: mice
Assay: Acute toxicity (LD50) in mice
Assay type: in vivo
Settings: 2 g/kg
Source text: They also are non-toxic. […] Moreover, there is no evidence that the weight of any of the major organs is altered as a result of treatment with compounds used in the invention.

In the case of `CC(=O)CN1C(=O)c2ccccc2C1=O` [1-N--Phthalimidopropan-2-one], the deaths is reported as “no deaths were observed”.

Source: patent USRE32868E, “Antihyperlipidemic compositions” (Research Corporation, priority 1985, dated 1989)
